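Method: 48-hour compound exposure of cells in 96-well plates, five concentrations, linear interpolation of endpoints. GI50 marks 50% less growth.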 Active and inactive are the calls of the source. Rule as the data show it: active = GI50 up to about 1.1 µM and inactive = higher.
Key:
Experiment in all cases: DTP human tumour cell line panel, 48 h
A498 = test system: A498
A549 = test system: A549
HL-60 = test system: HL-60
HOP-92 = test system: HOP-92
K562 = test system: K562
KM12 = test system: KM12
LOX IMVI = test system: LOX IMVI
MDA-MB-435 = test system: MDA-MB-435
NCI-H23 = test system: NCI-H23
OVCAR-5 = test system: OVCAR-5
RPMI-8226 = test system: RPMI-8226
SK-MEL-28 = test system: SK-MEL-28
SK-MEL-2 = test system: SK-MEL-2
SK-OV-3 = test system: SK-OV-3
SN12C = test system: SN12C
SNB-75 = test system: SNB-75
T47D = test system: T47D
UACC-62 = test system: UACC-62
UO-31 = test system: UO-31
Hs-578T = test system: Hs-578T

Structure (SMILES) | GI50 (A498) | GI50 (A549) | GI50 (HL-60) | GI50 (HOP-92) | GI50 (K562) | GI50 (KM12) | GI50 (LOX IMVI) | GI50 (MDA-MB-435) | GI50 (NCI-H23) | GI50 (OVCAR-5) | GI50 (RPMI-8226) | GI50 (SK-MEL-28) | GI50 (SK-MEL-2) | GI50 (SK-OV-3) | GI50 (SN12C) | GI50 (SNB-75) | GI50 (T47D) | GI50 (UACC-62) | GI50 (UO-31) | GI50 (Hs-578T)
CN(C)c1ccc(C=c2c3ccccc3n3c2cc(-c2ccc(Cl)cc2)[n+]3C)cc1 | 1.51 µM (inactive) | 0.238 µM (active) | 0.101 µM (active) | 0.221 µM (active) | < 0.0462 µM (active) | 0.105 µM (active) | 0.194 µM (active) | 0.207 µM (active) | 0.195 µM (active) | 1.04 µM (active) | 0.0372 µM (active) | 0.519 µM (active) | 0.237 µM (active) | 0.331 µM (active) | 0.254 µM (active) | 0.307 µM (active) | 0.133 µM (active) | 0.291 µM (active) | 0.904 µM (active) | –
CN(CC(=O)O)c1ncc2c(n1)C=CCC2 | > 100 µM (inactive) | > 100 µM (inactive) | 81.5 µM (inactive) | > 100 µM (inactive) | > 100 µM (inactive) | > 100 µM (inactive) | > 100 µM (inactive) | > 100 µM (inactive) | > 100 µM (inactive) | > 100 µM (inactive) | > 100 µM (inactive) | > 100 µM (inactive) | > 100 µM (inactive) | > 100 µM (inactive) | > 100 µM (inactive) | > 100 µM (inactive) | – | > 100 µM (inactive) | > 100 µM (inactive) | > 100 µM (inactive)
N=C(N)c1ccc2oc3ccc(C(=N)N)cc3c(=O)c2c1 | > 100 µM (inactive) | > 100 µM (inactive) | > 100 µM (inactive) | > 100 µM (inactive) | > 100 µM (inactive) | > 100 µM (inactive) | – | > 100 µM (inactive) | > 100 µM (inactive) | > 100 µM (inactive) | > 100 µM (inactive) | > 100 µM (inactive) | > 100 µM (inactive) | – | > 100 µM (inactive) | > 100 µM (inactive) | > 100 µM (inactive) | > 100 µM (inactive) | > 100 µM (inactive) | –
CC(=O)/C(=C/NC(=S)c1ccncc1)C(=O)Nc1ccccc1C | > 100 µM (inactive) | > 100 µM (inactive) | > 100 µM (inactive) | > 100 µM (inactive) | – | > 100 µM (inactive) | > 100 µM (inactive) | > 100 µM (inactive) | > 100 µM (inactive) | > 100 µM (inactive) | – | > 100 µM (inactive) | > 100 µM (inactive) | > 100 µM (inactive) | > 100 µM (inactive) | > 100 µM (inactive) | > 100 µM (inactive) | > 100 µM (inactive) | > 100 µM (inactive) | –
CN(C)c1nc(N(C)C)nc(N(C)C23CC4CC(CC(C4)C2)C3)n1 | > 100 µM (inactive) | 39.3 µM (inactive) | – | 21.8 µM (inactive) | 49.3 µM (inactive) | 44.5 µM (inactive) | – | 40.2 µM (inactive) | 13.4 µM (inactive) | 21.4 µM (inactive) | 23.7 µM (inactive) | 46.5 µM (inactive) | 25.1 µM (inactive) | 17.9 µM (inactive) | – | 24.3 µM (inactive) | 31.4 µM (inactive) | 56.8 µM (inactive) | 61.1 µM (inactive) | –
Oc1nncc2[nH]c(-c3ccccc3)cc12 | – | 49.3 µM (inactive) | 71.9 µM (inactive) | > 100 µM (inactive) | 44.1 µM (inactive) | 35.1 µM (inactive) | 66.1 µM (inactive) | 28.2 µM (inactive) | 48.9 µM (inactive) | 95.1 µM (inactive) | 56.4 µM (inactive) | – | 29.6 µM (inactive) | 63.7 µM (inactive) | 54.1 µM (inactive) | 22.9 µM (inactive) | 23.7 µM (inactive) | 33.9 µM (inactive) | 67.1 µM (inactive) | –
